Values of other authors, collected in patent US9333159B2, “Topical DNA repair composition” (PHOTOMEDEX, INC., priority 2011, dated 2016).

Conditions: known super antioxidants; USDA database value prevails where different

Which ORAC score does the source give for `C[N+](C)(C)[C@@H](Cc1c[nH]c(=S)[nH]1)C(=O)[O-]` [ergothioneine] here?
The ORAC score was 61,000.
